ChEMBL document CHEMBL1799950, “Antituberculosis cycloartane triterpenoids from Radermachera boniana” (J Nat Prod, 2011)
Values after ≈ are worked out from the molar mass of the structure shown.

Experiments:
[1] = system: Mycobacterium tuberculosis; test: Antitubercular activity against Mycobacterium tuberculosis H37Rv ATCC 27294 after 7 days by microplate alamar blue assay; format: functional; conditions: H37Rv ATCC 27294, 168 h
Vero [2] = test: Cytotoxicity against african green monkey Vero cells after 72 hrs by MTS assay; format: cell-based; conditions: Chlorocebus sabaeus
Vero [3] = test: Cytotoxicity against african green monkey Vero cells at 200 uM after 72 hrs by MTS assay; format: cell-based; conditions: chlorocebus sabaeus

SMILES	MIC [1]	IC50 (Vero [2])	Activity (Vero [3])
CC(=O)O[C@H]1CC[C@]2(C)[C@H]3CC=C4[C@H]5[C@](C(=O)O)(CC[C@@H](C)[C@@]5(C)O)CC[C@@]4(C)[C@]3(C)C[C@@H](O)[C@H]2C1(C)C	75.5 µM (≈ 40.1 µg/mL)	–	–
CC(=O)O[C@@H]1CC[C@@]2(C)[C@@H](CC[C@]3(C)[C@@H]2CC=C2[C@@H]4CC(C)(C)CC[C@]4(C)CC[C@]23C)[C@@]1(C)C(=O)O	94.8 µM (≈ 47.3 µg/mL)	–	–
CC1(C)CC[C@]2(C(=O)O)CC[C@]3(C)C(=CC[C@@H]4[C@@]5(C)CC[C@@H](O)C(C)(C)[C@@H]5CC[C@]43C)[C@@H]2C1	> 200 µM	–	–
CC[C@H](CC[C@@H](C)[C@H]1CC[C@H]2[C@@H]3CC=C4CC(=O)CC[C@]4(C)[C@H]3CC[C@]12C)C(C)C [BETA-SITOSTENONE]	39.5 µM (≈ 16.3 µg/mL)	–	–
CC(=O)O[C@H]1CC[C@]23C[C@]24CC[C@]2(C)[C@@H]([C@H](C)CCC=C(C)C)CC[C@@]2(C)[C@@H]4CC[C@H]3[C@]1(C)C(=O)O [BONIANIC ACID A]	34.8 µM (≈ 17.4 µg/mL)	–	–
CC(=O)O[C@H]1CC[C@]23C[C@]24CC[C@]2(C)[C@@H]([C@H](C)CCC(=O)C(C)C)CC[C@@]2(C)[C@@H]4CC[C@H]3[C@]1(C)C(=O)O [BONIANIC ACID B]	9.9 µM (≈ 5.1 µg/mL)	74.2 µM	–
CC(C)[C@@H](C)/C=C/[C@@H](C)[C@H]1CC[C@@H]2[C@]1(C)CC[C@H]1[C@]23C=C[C@]2(C[C@@H](O)CC[C@]12C)OO3 [ERGOSTEROL PEROXIDE]	3.5 µM (≈ 1.5 µg/mL)	–	Non-toxic
CC1(C)CC[C@]2(C(=O)O)CC[C@]3(C)C(=CC[C@@H]4[C@@]5(C)CC[C@H](O)C(C)(C)[C@@H]5CC[C@]43C)[C@@H]2C1 [OLEANOLIC_ACID]	96.5 µM (≈ 44.1 µg/mL)	–	–
CO[C@H]1/C=C/O[C@@]2(C)Oc3c(C)c(O)c4c(O)c(c(/C=N/N5CCN(C)CC5)c(O)c4c3C2=O)NC(=O)/C(C)=C\C=C\[C@H](C)[C@H](O)[C@@H](C)[C@@H](O)[C@@H](C)[C@H](OC(C)=O)[C@@H]1C [RIFAMPIN]	0.14 µM (≈ 0.115 µg/mL)	–	–
C[C@H]1[C@H](C)CC[C@]2(C(=O)O)CC[C@]3(C)C(=CC[C@@H]4[C@@]5(C)CC[C@H](O)C(C)(C)[C@@H]5CC[C@]43C)[C@H]12 [URSOLIC ACID]	94.8 µM (≈ 43.3 µg/mL)	–	–
